From patent publication US10874687B1 (Atea Pharmaceuticals, Inc., priority 2020, dated 2020)
Where “and” joins values, the source holds several entries; their conditions need not be identical. Identical values can stand only once. Like-named read-outs stand apart in the source and are kept apart here. Marks after values point to notes of the source that are not given here.

Legend:
[1] = Cytotoxicity in mock infected BHK-21 cells (MTT); assay type: cell-based, hamster; details: hamster
Method: (§1) To determine the cytotoxicity, cells were seeded at an initial density of 1×10^6 cells/mL in 96 well plates containing Minimum Essential Medium with Earles's salts (MEM-E), L-glutamine, 1 mM sodium pyruvate and 25 mg/L kanamycin, supplemented with 10% fetal bovine serum. Cell cultures were then incubated at 37° C. in a humidified 5% CO2 atmosphere in the absence or presence of serial dilutions of test compounds. Cell viability was determined by the MTT method.
(§2) BHK-21 cells: Test compounds were dissolved in DMSO at 100 mM and then diluted in Minimum Essential Medium with Earle's salts (MEM-E) containing 1 mM sodium pyruvate and 25 μg/mL kanamycin, supplemented with 10% FBS (growth medium) to final concentrations of 100, 20, 4 and 0.8 μM (two 24-well replica plates each). After BHK-21 cells were grown to confluency in 96-well plates, growth medium was replaced with fresh maintenance medium (growth medium with 1% inactivated FBS in place of 10% FBS) containing serially diluted test compound and HCoV-229E at a multiplicity of infection (MOI) of 0.01. Uninfected cells in the presence of serially diluted compound were used to assess the cytotoxicity of compounds. After a 3-day incubation at 37° C. in a humidified 5% CO2 atmosphere, cell viability was determined by the MTT method (Pauwels, R et al. J. Virol. Methods 20(4):309-321 (1988)).

[2] = test system: mock infected BHK cells; experiment: Cytotoxicity in mock infected BHK-21 cells (MTT); assay type: cell-based, hamster; details: mock infected BHK cells; MTT; 3 days; Table 2B
Method: as §1, §2

[3] = test system: HCoV-229E; experiment: Protection of BHK-21 cells from virus-induced cytopathogenicity (MTT); assay type: cell-based, human coronavirus; details: for EC50: Human coronavirus 229E
Method: (§3) After a 3-day incubation at 37° C. cell viability was determined by the MTT method as described by Pauwels et al. (J. Virol. Methods 1988, 20, 309-321).
In an initial screening, BHK-21 cells acutely infected with a seasonal human alpha coronavirus, HCoV-229E, were exposed to serial dilutions of Compound 1A. […] No toxicity was detected from either drug.
as §2

[4] = in vitro; details: human
[5] = test system: HCoV-229E, HCoV-OC43, SARS-CoV-1 and SARS-CoV-2; experiment: organism not typed; assay type: cell-based, human coronaviruses; details: read-out: individual EC90 values
[6] = test system: MERS-CoV (EMC); experiment: microbe, parasite or virus in culture; assay type: cell-based
[7] = test system: HCoV-OC43; experiment: microbe, parasite or virus in culture; assay type: cell-based, human coronavirus beta-OC43; details: Betacoronavirus 1, OC43, Huh-7, read-out: VYR EC90
[8] = test system: HCoV; experiment: Protection of MES-1 cells from virus-induced cytopathogenicity (MTT); assay type: cell-based; details: unidentified human coronavirus, 72 h, 50% protection of MES-1 cells, day 3 post-infection
Method: as §3

[9] = in vitro; details: human; remark: listed apart in the source
[10] = test system: HCoV-229E; experiment: microbe, parasite or virus in culture; assay type: cell-based, human coronavirus alpha-229E
[11] = test system: Huh-7 cells; details: human
[12] = test system: HCoV-229E; details: HCoV-229E in MRC-5 cells; cited from earlier work
[13] = test system: SARS-CoV (Urbani); experiment: microbe, parasite or virus in culture; assay type: cell-based, SARS-CoV-1
[14] = in vitro; details: human; remark: listed apart in the source
[15] = test system: mock infected MES-1 cells; experiment: Cytotoxicity in mock infected MES-1 cells (MTT); assay type: cell-based; details: 3 days, Table 3B
Method: as §1

[16] = Cytotoxicity in mock infected MES-1 cells (MTT); assay type: cell-based; details: Table 3A
Method: as §1

[17] = Plasma PK of metabolites in non-human primates after oral Compound 2A; details: cynomolgus, cynomolgus monkey, in vivo, 30 mg/kg
[18] = test system: HCoV-OC43; experiment: microbe, parasite or virus in culture; assay type: cell-based, human coronavirus beta-OC43
[19] = test system: SARS-CoV-2 (WA1); experiment: microbe, parasite or virus in culture; assay type: cell-based

CNc1nc(N)nc2c1ncn2[C@@H]1O[C@H](CO[P@@](=O)(N[C@@H](C)C(=O)OC(C)C)Oc2ccccc2)[C@@H](O)[C@@]1(C)F [Compound 1A]
CC50 at 3 days ([1]; mock infected BHK-21 cells, mock infected BHK cells, MTT, 3 days, Table 2A): > 100000 nM | CC50 at 3 days ([1]; uninfected BHK-21 cells, BHK-21, Table 5): > 100000 nM | CC50 [2]: > 100000 nM | Selectivity Index ([3]; CC50/EC50, HCoV-229E in BHK-21): >58^c | EC50 ([3]; BHK, 72 h, 50% protection of BHK cells, MTT, day 3 post-infection, Table 2A, read-out: EC50): 1600 nM | EC50 ([3]; BHK, 72 h, 50% protection of BHK cells, MTT, day 3 post-infection, Table 2B, read-out: EC50): 2000 nM | EC50 ([3]; BHK-21, HCoV-229E in BHK-21, dye staining, average of 2 experiments, Table 5, read-out: EC50): 1800 nM | EC50 ([3]; BHK-21, HCoV-229E in BHK-21, the 2 experiments behind the average, read-out: EC50 of the single experiments): 1600 nM | CC50 [4]: > 86000 nM | EC90 [5]: 340 to 1200 nM | EC90 ([6]; Middle East respiratory syndrome-related coronavirus, Huh-7, read-out: average EC90, MERS-CoV in Huh-7): 36000 nM | EC90 ([6]; read-out: average EC90, MERS-CoV in Huh-7): 37000 nM | EC90 [7]: 290 nM | EC50 ([8]; Table 3A): 1600 nM | EC50 ([8]; Table 3B): 2000 nM | CC50 ([9]; Neutral Red Assay CC50): > 86000 nM | CC50 ([9]; Neutral Red CC50): > 50000 nM | CC50 ([9]; Visual CC50): > 50000 nM | Selectivity Index (CC50/EC90) ([10]; HCoV-229E in Huh-7): >75 | EC50 ([10]; Human coronavirus 229E, Huh-7, read-out: Neutral Red Assay EC50): 1700 nM | EC50 ([10]; Human coronavirus 229E, Huh-7, read-out: Neutral Red EC50): 1000 nM | EC90 ([10]; Human coronavirus 229E, Huh-7, read-out: VYR EC90): 710 nM | EC90 ([10]; Human coronavirus 229E, Huh-7, read-out: Virus Yield Reduction Assay EC90): 1000 nM | EC50 ([10]; Human coronavirus 229E, Huh-7, read-out: Visual EC50): 1000 nM | EC50 ([10]; read-out: Neutral Red Assay EC50): 1600 nM | Neutral Red Assay CC50 [11]: >50^ μg/mL | EC50 [12]: > 100000 nM | Selectivity Index ([13]; CC50/EC90, SARS-CoV (Urbani) in Huh7 cells): >250 | EC90 ([13]; Severe acute respiratory syndrome coronavirus, Huh-7, read-out: Virus Yield Reduction Assay EC90): 340 nM and 0.2 µg/mL | CC50 [14]: > 50 µg/mL | CC50 [15]: > 100000 nM | CC50 at 3 days [16]: > 100000 nM | AUC(0-t) [17]: 0.44 µM·h | Cmax [17]: 640 nM | Tmax [17]: 30 to 60 min | half-life [17]: 44.4 min | EC50 ([18]; Betacoronavirus 1, OC43, RD, read-out: Neutral Red Assay EC50): 2800 nM | EC90 ([18]; Betacoronavirus 1, OC43, RD, read-out: Virus Yield Reduction Assay EC90): 2200 nM | Selectivity Index (CC50/EC90) ([18]; HCoV-OC43 in RD): >39 | EC90 ([19]; Severe acute respiratory syndrome coronavirus 2, HAE, read-out: EC90 of the single replicates): 570 nM | EC90 ([19]; Severe acute respiratory syndrome coronavirus 2, HAE, read-out: Virus Yield Reduction Assay EC90): 470 nM and 0.37 µg/mL | EC90 ([19]; Severe acute respiratory syndrome coronavirus 2, HAE, read-out: average EC90): 540 nM | EC90 ([19]; Severe acute respiratory syndrome coronavirus 2, HAE, read-out: replicate EC90 determinations): 0.33 µg/mL | EC90 ([19]; read-out: Virus Yield Reduction Assay EC90): 510 nM and 640 nM | EC90 ([19]; read-out: average EC90): 500 nM and ~550 nM
